According to paper PMC3874807 (Bioorganic & medicinal chemistry letters, 2013):

Biological target: BpIspF (Burkholderia pseudomallei, UniProt Q3JRA0)
Test: biochemical
Type: binding

BpIspF, sequence (Q3JRA0 whole entry, looked up): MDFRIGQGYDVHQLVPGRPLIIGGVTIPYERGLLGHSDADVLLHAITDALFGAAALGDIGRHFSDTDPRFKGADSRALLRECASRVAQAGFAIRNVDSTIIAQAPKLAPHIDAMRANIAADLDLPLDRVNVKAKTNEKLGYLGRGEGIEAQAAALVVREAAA

Compound: Oc1ccc(-n2ccnc2)cc1 [FOL955]
- Kd: > 500 µM
